Data on 29 compounds can be found in patent US9353104B2, “Substituted pyridizinone derivatives as PDE10 inhibitors” (priority 2013, dated 2016).

By Ki is commonly meant a dissociation constant, usually derived from enzyme kinetics or from competition with a known ligand.

SMILES strings stand for the structures.

human PDE10A2, sequence (Q9Y233 267-1055): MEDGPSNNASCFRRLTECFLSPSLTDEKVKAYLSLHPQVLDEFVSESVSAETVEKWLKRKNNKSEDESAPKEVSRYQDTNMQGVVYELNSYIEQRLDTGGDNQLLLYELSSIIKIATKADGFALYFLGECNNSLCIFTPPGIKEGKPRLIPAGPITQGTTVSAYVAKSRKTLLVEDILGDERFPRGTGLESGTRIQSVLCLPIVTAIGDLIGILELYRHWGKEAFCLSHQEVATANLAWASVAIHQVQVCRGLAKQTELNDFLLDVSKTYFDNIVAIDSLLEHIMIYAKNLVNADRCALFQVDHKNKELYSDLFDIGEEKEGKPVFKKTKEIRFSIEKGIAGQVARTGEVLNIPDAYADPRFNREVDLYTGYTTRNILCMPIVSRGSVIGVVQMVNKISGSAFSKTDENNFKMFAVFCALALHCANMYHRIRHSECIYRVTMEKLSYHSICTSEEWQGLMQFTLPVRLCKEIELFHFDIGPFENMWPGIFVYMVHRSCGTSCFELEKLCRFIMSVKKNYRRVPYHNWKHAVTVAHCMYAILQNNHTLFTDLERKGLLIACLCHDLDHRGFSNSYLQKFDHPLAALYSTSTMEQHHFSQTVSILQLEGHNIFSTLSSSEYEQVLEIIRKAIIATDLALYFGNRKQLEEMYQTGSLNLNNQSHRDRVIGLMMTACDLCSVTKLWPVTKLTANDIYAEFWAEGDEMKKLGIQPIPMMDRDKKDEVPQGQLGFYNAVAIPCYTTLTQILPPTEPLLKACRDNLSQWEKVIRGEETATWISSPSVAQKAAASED

In this test the target is human PDE10A2 (Homo sapiens (Human), UniProt Q9Y233). Kind of test: PDE10 fluorescence polarization (IMAP FP) inhibition assay. In kind it is biochemical. The following applies: human PDE10A2 lysate, FAM-labeled cAMP 50 nM, room temperature; read-out: PDE10A Ki. The gist of the method:
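Cytoplasmic lysate of AD293 cells transiently expressing human PDE10A2, diluted for ~20% conversion of 50 nM FAM-cAMP, in 10 mM Tris pH 7.2, 10 mM MgCl2, 1 mM DTT, 0.01% Tween-20. Reaction 30 min at room temperature, read by IMAP fluorescence polarization; 10-point 3-fold titrations, 1% DMSO as 0%, reference PDE10 inhibitor at 5,000× Ki as 100%.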
Regarding `Cc1ccc(CNc2cc(OC[C@H]3C[C@@H]3c3ccccn3)nn(C)c2=O)c(C)n1` [Example 55, 4-(((2,6-dimethylpyridin-3-yl)methyl)amino)-2-methyl-6-(((1S,2S)-2-(pyridin-2-yl)cyclopropyl-)-methoxy)pyridazin-3(2H)-one], the inhibition constant (Ki) amounted to 0.021 nM. As for `COc1ccc([C@H]2C[C@@H]2COc2cc(NCc3cn(C)nc3C)c(=O)n(C)n2)nc1` [Example 37, 4-((1,3-dimethyl-1H-pyrazol-4-yl)methyl-amino)-6-(((1S,2S)-2-(5-methoxypyridin-2-yl)cyclopropyl)methoxy)-2-methylpyridazin-3(2H)-one], the figure is 0.009 nM; as for `COc1ccc([C@H]2C[C@@H]2COc2cc(NCc3cccnc3C)c(=O)n(C)n2)nc1` [Example 65, 6-(((1S,2S)-2-(5-methoxy-pyridin-2-yl)cyclopropyl-)-methoxy)-2-methyl-4-(((2-methylpyridin-3-yl)-methyl)amino)pyridazin-3(2H)-one], 0.053 nM; as for `Cc1ccc(CNc2cc(OC[C@H]3C[C@@H]3c3ccc(Cl)cn3)nn(C)c2=O)c(C)n1` [Example 54], 0.019 nM. Take `COc1ccc([C@H]2C[C@@H]2COc2cc(NCc3cncnc3)c(=O)n(C)n2)nc1` [Example 63, 6-(((1S,2S)-2-(5-methoxy-pyridin-2-yl)cyclopropyl-)-methoxy)-2-methyl-4-((pyrimidin-5-ylmethyl)-amino)pyridazin-3(2H)one]: the Ki was 1.7 nM. As for `Cn1cc(CNc2cc(OC[C@H]3C[C@@H]3c3ccc(F)cn3)nn(C)c2=O)cn1` [Example 19, 6-(((1S,2S)-2-(5-fluoropyridin-2-yl)cyclo-propyl)methoxy)-2-methyl-4-((1-methyl-1H-pyrazol-4-yl)methylamino-)-pyridazin-3(2H)-one], the figure is 1.26 nM; as for `COc1ccc([C@H]2C[C@@H]2COc2cc(N(Cc3ccc(C)nc3C)Cc3ccc(C)nc3C)c(=O)n(C)n2)nc1` [Example 91, 4-(bis((2,6-dimethylpyridin-3-yl)methyl)amino)-6-(((1S,2S)-2-(5-methoxypyridin-2-yl)cyclopropyl)methoxy)-2-methylpyridazin-3(2H)-one], 5.9 nM; as for `Cc1cnc(CNc2cc(OC[C@@H]3C[C@H]3c3nn(C)c4ccccc34)nn(C)c2=O)s1` [Example 114, 2-methyl-6-(((1R,2R)-2-(1-methyl-1H-indazol-3-yl)cyclopropyl)methoxy)-4-((5-methylthiazol-2-yl)methylamino)pyridazin-3(2H)-one], 0.118 nM.

Consider `CCc1cc(CNc2cc(OC[C@H]3C[C@@H]3c3ccn(C)n3)nn(C)c2=O)n(C)n1` [Example 139, 4-((3-ethyl-1-methyl-1H-pyrazol-5-yl)methylamino)-2-methyl-6-(((1S,2S)-2-(1-methyl-1H-pyrazol-3-yl)cyclopropyl)methoxy) pyridazin-3(2H)-one], for which the Ki came out at 0.295 nM. For `COc1ccc([C@H]2C[C@@H]2COc2cc(NCc3cccc(C)n3)c(=O)n(C)n2)nc1` [Example 97, 6-(((1S,2S)-2-(5-methoxypyridin-2-yl)-cyclopropyl)methoxy)-2-methyl-4-(((6-methyl-pyridin-2-yl)methyl)-amino)pyridazin-3(2H)one], the Ki was 2.7 nM. With `Cn1cc(CNc2cc(OC[C@@H]3C[C@H]3c3nn(C)c4ccccc34)nn(C)c2=O)cn1` [Example 113, 2-methyl-6-(((1R,2R)-2-(1-methyl-1H-indazol-3-yl)cyclopropyl)methoxy)-4-((1-methyl-1H-pyrazol-4-yl)methylamino) pyridazin-3(2H)-one], the inhibitory constant (Ki) was 0.197 nM.

In the case of `COc1ccc([C@H]2C[C@@H]2COc2cc(NCc3cccnc3)c(=O)n(C)n2)nc1` [Example 68, 6-(((1S,25)-2-(5-methoxy-pyridin-2-yl)cyclopropyl-)-methoxy)-2-methyl-4-((pyridin-3-ylmethyl)-amino)pyridazin-3(2H)one], the Ki came out at 11.6 nM. For `COc1ccc([C@H]2C[C@@H]2COc2cc(NCc3cnn(C)c3)c(=O)n(C)n2)nc1` [Example 131, 6-(((1S,2S)-2-(5-methoxy-pyridin-2-yl)cyclopropyl-)methoxy)-2-methyl-4-((1-methyl-1H-pyrazol-4-yl)methylamino)pyridazin-3(2H)-one] the value was 0.014 nM.

With `COc1ccc([C@H]2C[C@@H]2COc2cc(NCc3c(C)noc3C)c(=O)n(C)n2)nc1` [Example 59, 4-(((3,5-dimethylisoxazol-4-yl)methyl)amino)-6-(((1S,2S)-2-(5-methoxy-pyridin-2-yl)cyclopropyl-)-methoxy)-2-methyl-pyridazin-3(2H)-one], the Ki is 0.38 nM. For `COc1ccc([C@H]2C[C@@H]2COc2cc(NCc3cnn(C)c3Cl)c(=O)n(C)n2)nc1` [Example 96, 4-(((5-chloro-1-methyl-1H-pyrazol-4-yl)methyl)-amino)-6-(((1S,2S)-2-(5-methoxypyridin-2-yl)-cyclopropyl)methoxy)-2-methylpyridazin-3(2H)one] the value was 1.27 nM; for `COc1ccc([C@H]2C[C@@H]2COc2cc(NCc3cc(C)ccn3)c(=O)n(C)n2)nc1` [Example 105, 6-(((1S,2S)-2-(5-methoxy-pyridin-2-yl)cyclopropyl-)methoxy)-2-methyl-4-(((-4-methylpyridin-2-yl)-methyl)amino)pyridazin-3(2H)-one], 0.276 nM. As for `Cc1ccc([C@H]2C[C@@H]2COc2cc(NC(=O)c3cc(C)nn3C)c(=O)n(C)n2)nc1` [Example 102, 1,3-dimethyl-N-(2-methyl-6-(((1S,2S)-2-(5-methyl-pyridin-2-yl)cyclopropyl-)methoxy)-3-oxo-2,3-dihydropyridazin-4-yl)-1H-pyrazole-5-carboxamide], the figure is 51.2 nM; as for `Cc1ccc(CNc2cc(OC[C@H]3C[C@@H]3c3ccc(C)cn3)nn(C)c2=O)nc1` [Example 9, 2-methyl-6-(((1S,2S)-2-(5-methylpyridin-2-yl)cyclopropyl)methoxy)-4-((5-methylpyridin-2-yl)methylamino)pyridazin-3(2H)-one], 0.051 nM; as for `COc1ccc(Cn2nc(OC[C@H]3C[C@@H]3c3ccc(OC)cn3)cc(NCc3nnc(C)s3)c2=O)cc1` [Example 142, 2-(4-methoxybenzyl)-6-(((1S,2S)-2-(5-methoxy-pyridin-2-yl)cyclopropyl-)methoxy)-4-((5-methyl-1,3,4-thiadiazol-2-yl)methyl-amino)pyridazin-3(2H)-one], 75 nM. As for `COc1ccc([C@H]2C[C@@H]2COc2cc(NCc3nc(C)c(C)s3)c(=O)n(C)n2)nc1` [Example 126, 4-((4,5-dimethylthiazol-2-yl)methylamino)-6-(((1S,2S)-2-(5-methoxy-pyridin-2-yl)cyclopropyl-)methoxy)-2-methyl-pyridazin-3(2H)-one], the figure is 0.048 nM. For the compound `Cc1nnc(CNc2cc(OC[C@H]3C[C@@H]3c3ccc(OC(F)F)cn3)nn(C)c2=O)s1` [Example 5, 6-(((1S,2S)-2-(5-(difluoromethoxy)pyridin-2-yl)cyclopropyl)methoxy-)-2-methyl-4-((5-methyl-1,3,4-thiadiazol-2-yl)-methylamino)pyridazin-3(2H)-one], the inhibition constant (Ki) is 0.157 nM. For `Cc1cnc(CNc2cc(OC[C@H]3C[C@@H]3c3ccc4c(n3)CCC4)nn(C)c2=O)s1` [Example 124, 6-(((1S,2S)-2-(6,7-dihydro-5H-cyclopenta-[b]pyridin-2-yl)cyclopropyl)methoxy)-2-methy-4-((5-methylthiazol-2-yl)-methylamino-)pyridazin-3(2H)-one] the value was 0.002 nM. For `Cc1ncc(CNc2cc(OC[C@H]3C[C@@H]3c3ccn(C)n3)nn(C)c2=O)s1` [Example 2, 2-methyl-6-(((1S,2S)-2-(1-methyl-1H-pyrazol-3-yl)cyclopropyl)methoxy)-4-((2-methylthiazol-5-yl)methylamino)pyridazin-3(2H)-one] the value was 0.089 nM. On to `Cc1ccc(CNc2cc(OC[C@H]3C[C@@H]3c3ccc(F)cn3)nn(C)c2=O)nc1` [Example 16, 6-(((1S,2S)-2-(5-fluoropyridin-2-yl)cyclopropyl)methoxy)-2-methyl-4-((5-methylpyridin-2-yl)methylamino)pyridazin-3(2H)-one], for which the Ki was 0.782 nM. As for `COc1ccc([C@H]2C[C@@H]2COc2cc(NCc3cc(C)no3)c(=O)n(C)n2)nc1` [Example 89, 6-(((1S,2S)-2-(5-methoxypyridin-2-yl)cyclopropyl)methoxy)-2-methyl-4-(((3-methylisoxazol-5-yl)methyl)amino)pyridazin-3(2H)-one], the figure is 0.008 nM. For `COc1ccc([C@H]2C[C@@H]2COc2cc(NCc3ncc(C)s3)c(=O)n(C)n2)nc1` [Example 130, 6-(((1S,2S)-2-(5-methoxy-pyridin-2-yl)cyclopropyl-)methoxy)-2-methyl-4-((5-methyl-thiazol-2-yl)-methylamino-)pyridazin-3(2H)-one] the value was 0.004 nM; for `Cc1ncc(CNc2cc(OC[C@H]3C[C@@H]3c3nn(C)c4ccccc34)nn(C)c2=O)s1` [Example 109, 2-methyl-6-(((1S,2S)-2-(1-methyl-1H-indazol-3-yl)cyclopropyl)methoxy)-4-((2-methylthiazol-5-yl)methylamino)pyridazin-3(2H)-one], 2.15 nM; for `Cn1cc(CNc2cc(OC[C@H]3C[C@@H]3c3ccc4c(n3)CCC4)nn(C)c2=O)cn1` [Example 125, 6-(((1S,2S)-2-(6,7-dihydro-5H-cyclopenta[b]pyridin-2-1)cyclopropyl)methoxy)-2-methyl-4-((1-methyl-1H-pyrazol-4-yl)methylamino-)pyridazin-3(2H)-one], 0.005 nM.

Turning to `Cc1nnc(CN(C)c2cc(OC[C@H]3C[C@@H]3c3ccc4ccccc4n3)nn(C)c2=O)s1` [Example 36, 2-methyl-4-(methyl((5-methyl-1,3,4-thiadiazol-2-yl)methyl)amino)-6-(((1S,2S)-2-(quinolin-2-yl)cyclopropyl)methoxy)-pyridazin-3(2H)-one], the Ki was determined as 0.911 nM.
